Laboratory results published in patent publication US7632933B2, “Corticotropin releasing factor 2 receptor agonists” (priority 2002, dated 2009).
pEC50: −log10 of the molar value. Where two headings read alike, the source gives them in different places. Peptide text beside a SMILES is read from it.

Tests used:
CRF1R = biological target: T1, CRF1R (Homo sapiens, UniProt P34998); assay: CRF1R agonist activity (EC50 and Emax), called comparative CRF binding; assay type: cell-based; settings: CRF1R; for EC50: CRF1R EC50 (nM); for pEC50: read-out: CRF1R EC50
T1 sequence (P34998 24-415): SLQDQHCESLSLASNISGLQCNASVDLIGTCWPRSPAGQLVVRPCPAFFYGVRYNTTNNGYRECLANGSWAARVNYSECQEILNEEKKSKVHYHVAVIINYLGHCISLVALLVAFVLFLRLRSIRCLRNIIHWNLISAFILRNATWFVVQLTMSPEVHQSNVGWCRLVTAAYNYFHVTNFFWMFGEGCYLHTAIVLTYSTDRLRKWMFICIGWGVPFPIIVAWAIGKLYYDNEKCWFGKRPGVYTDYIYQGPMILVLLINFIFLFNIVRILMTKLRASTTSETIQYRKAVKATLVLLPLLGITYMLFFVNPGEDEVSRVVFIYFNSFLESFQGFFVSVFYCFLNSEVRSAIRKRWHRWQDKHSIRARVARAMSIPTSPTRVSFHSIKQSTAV
Excerpt: (§1) The pharmacological activity and selectivity of the peptides of present invention can be determined using published test procedures. See, e.g, U.S. patent application Ser. No. 09/799,978. Because CRF2R and CRF1R are homologous proteins, it is expected that a certain proportion of agonists for CRF2R will also function as agonists of CRF1R. As discussed above, activation of CRF1R induces activation of the HPA axis since increased corticosteroid production leads to skeletal muscle atrophy. In most cases in which an increase in muscle mass or function is desired, it is not desirable to activate the HPA axis.
(§2) Because it is desirable to discriminate binding between CRF2R, as compared with CRF1R, the assays described above may be conducted using a cell, or membrane from a cell, which expresses only CRF2R or the assays can be conducted with a recombinant source of CRF2R. Cells expressing both forms of CRFR may be modified using homologous recombination to inactivate or otherwise disable the CRF1R gene. Alternatively, if the source of CRFR contains more than one CRFR type, the background signal produced by the receptor which is not of interest must be subtracted from the signal obtained in the assay. […] Known antagonists of CRFRs include, but are not limited to, antalarmin (CRF1R selective), antisauvagine-30 (CRF2R selective) and astressin (nonselective for CRF1R/CRF2R).
(§3) Cell-based assays include the steps of contacting cells which express CRF1R or CRF2R with a peptide of the present invention or control and measuring activation of the CRFR by measuring the expression or activity of components of the CRFR signal transduction pathways.
(§4) For example, after contact with a peptide of the present invention, lysates of the cells can be prepared and assayed for induction of cAMP. cAMP is induced in response to Gαs activation. Because Gαs is activated by receptors other than CRFR and because a test peptide may be exerting its effect through CRFRs or by another mechanism, two control comparisons are relevant for determining whether the peptide increases levels of cAMP via activation of a CRFR. One control compares the cAMP level of cells contacted with the peptide and the cAMP level of cells contacted with a control compound (i.e., the vehicle in which the peptide is dissolved).
(§5) In one example, cAMP induction is measured with the use of DNA constructs containing the cAMP responsive element linked to any of a variety of reporter genes can be introduced into cells expressing CRFRs. Such reporter genes include, but are not limited to, chloramphenicol acetyltransferase (CAT), luciferase, glucuronide synthetase, growth hormone, fluorescent proteins (e.g., Green Fluorescent Protein), or alkaline phosphatase. Following exposure of the cells to the peptide, the level of reporter gene expression can be quantitated to determine the peptide's ability to increase cAMP levels and thus determine the peptide's ability to activate the CRFR.
(§6) In addition to using cells expressing full length CRFRs, cells can be engineered which express CRFRs containing the ligand binding domain of the receptor coupled to, or physically modified to contain, reporter elements or to interact with signaling proteins. For example, a wild type CRFR or CRFR fragment can be fused to a G-protein resulting in activation of the fused G-protein upon agonist binding to the CRFR portion of the fusion protein. […] In addition, alternative pathways for induction of the CRE reporter could be eliminated to reduce basal levels.

CRF2R = biological target: T2, CRF2R (Homo sapiens, UniProt Q13324); assay: CRF2R agonist activity (EC50 and Emax), called comparative CRF binding; assay type: cell-based; settings: CRF2R; for EC50: CRF2R EC50 (nM); for pEC50: read-out: CRF2R EC50
T2 sequence (Q13324 1-411): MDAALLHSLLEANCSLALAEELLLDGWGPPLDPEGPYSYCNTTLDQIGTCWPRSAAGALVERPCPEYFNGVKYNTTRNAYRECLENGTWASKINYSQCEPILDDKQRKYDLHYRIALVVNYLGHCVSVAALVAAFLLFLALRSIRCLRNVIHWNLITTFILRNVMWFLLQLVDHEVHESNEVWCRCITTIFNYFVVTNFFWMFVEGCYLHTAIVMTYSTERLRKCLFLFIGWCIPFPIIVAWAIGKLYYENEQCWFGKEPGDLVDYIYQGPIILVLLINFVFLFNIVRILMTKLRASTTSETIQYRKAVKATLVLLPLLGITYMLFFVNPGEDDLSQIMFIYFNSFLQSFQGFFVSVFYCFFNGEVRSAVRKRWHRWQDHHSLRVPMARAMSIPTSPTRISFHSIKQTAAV
Excerpt: as §1, §2, §3, §4, §5, §6

SMILES	EC50 (CRF1R) [nM]	EC50 (CRF2R) [nM]	pEC50 (CRF1R)	pEC50 (CRF2R)
CC[C@H](C)[C@H](N)C(=O)N[C@H](C(=O)N[C@@H](CC(C)C)C(=O)N[C@@H](CO)C(=O)N[C@@H](CC(C)C)C(=O)N[C@@H](CC(=O)O)C(=O)N[C@H](C(=O)N1CCC[C@H]1C(=O)N[C@H](C(=O)NCC(=O)N[C@@H](CC(C)C)C(=O)N[C@@H](CC(C)C)C(=O)N[C@@H](CCC(N)=O)C(=O)N[C@H](C(=O)N[C@@H](CC(C)C)C(=O)N[C@@H](CC(C)C)C(=O)N[C@@H](CCC(=O)O)C(=O)N[C@@H](CCC(N)=O)C(=O)N[C@@H](C)C(=O)N[C@@H](C)C(=O)N[C@@H](C)C(=O)N[C@@H](C)C(=O)N[C@@H](CCCNC(=N)N)C(=O)N[C@@H](CCC(=O)O)C(=O)N[C@@H](CCC(N)=O)C(=O)N[C@@H](C)C(=O)N[C@H](C(=O)N[C@H](C(=O)N[C@@H](CC(N)=O)C(=O)N[C@@H](C)C(=O)N[C@@H](CCCNC(=N)N)C(=O)N[C@H](C(=O)N[C@@H](CC(C)C)C(=O)N[C@@H](C)C(=O)N[C@@H](CCCNC(=N)N)C(=O)N[C@H](C(N)=O)C(C)C)[C@@H](C)CC)[C@@H](C)O)[C@@H](C)O)[C@@H](C)CC)[C@@H](C)CC)C(C)C)C(C)C [compound 134] (H-IVLSLDVPIGLLQILLEQAAAAREQATTNARILARV-NH2)	> 100	> 100		
CC[C@H](C)[C@H](N)C(=O)N[C@H](C(=O)N[C@@H](CC(C)C)C(=O)N[C@@H](CO)C(=O)N[C@@H](CC(C)C)C(=O)N[C@@H](CC(=O)O)C(=O)N[C@H](C(=O)N1CCC[C@H]1C(=O)N[C@H](C(=O)NCC(=O)N[C@@H](CC(C)C)C(=O)N[C@@H](CC(C)C)C(=O)N[C@@H](CCC(N)=O)C(=O)N[C@H](C(=O)N[C@@H](CC(C)C)C(=O)N[C@@H](CC(C)C)C(=O)N[C@@H](CCC(=O)O)C(=O)N[C@@H](CCC(N)=O)C(=O)N[C@@H](C)C(=O)N[C@@H](C)C(=O)N[C@@H](CCCNC(=N)N)C(=O)N[C@@H](C)C(=O)N[C@@H](C)C(=O)N[C@@H](CCCNC(=N)N)C(=O)N[C@@H](CCC(=O)O)C(=O)N[C@@H](CCC(N)=O)C(=O)N[C@@H](C)C(=O)N[C@H](C(=O)N[C@H](C(=O)N[C@@H](CC(N)=O)C(=O)N[C@@H](C)C(=O)N[C@@H](CCCNC(=N)N)C(=O)N[C@H](C(=O)N[C@@H](CC(C)C)C(=O)N[C@@H](C)C(=O)N[C@@H](CCCNC(=N)N)C(=O)N[C@H](C(N)=O)C(C)C)[C@@H](C)CC)[C@@H](C)O)[C@@H](C)O)[C@@H](C)CC)[C@@H](C)CC)C(C)C)C(C)C [compound 135] (H-IVLSLDVPIGLLQILLEQAARAAREQATTNARILARV-NH2)			< 7.00	< 7.00
CC[C@H](C)[C@H](N)C(=O)N[C@H](C(=O)N[C@@H](CC(C)C)C(=O)N[C@@H](CO)C(=O)N[C@@H](CC(C)C)C(=O)N[C@@H](CC(=O)O)C(=O)N[C@H](C(=O)N1CCC[C@H]1C(=O)N[C@H](C(=O)NCC(=O)N[C@@H](CC(C)C)C(=O)N[C@@H](CC(C)C)C(=O)N[C@@H](CCC(N)=O)C(=O)N[C@H](C(=O)N[C@@H](CC(C)C)C(=O)N[C@@H](CC(C)C)C(=O)N[C@@H](CCC(=O)O)C(=O)N[C@@H](CCC(N)=O)C(=O)N[C@@H](C)C(=O)N[C@@H](CCCNC(=N)N)C(=O)N[C@@H](C)C(=O)N[C@@H](C)C(=O)N[C@@H](C)C(=O)N[C@@H](CCCNC(=N)N)C(=O)N[C@@H](CCC(=O)O)C(=O)N[C@@H](CCC(N)=O)C(=O)N[C@@H](C)C(=O)N[C@H](C(=O)N[C@H](C(=O)N[C@@H](CC(N)=O)C(=O)N[C@@H](C)C(=O)N[C@@H](CCCNC(=N)N)C(=O)N[C@H](C(=O)N[C@@H](CC(C)C)C(=O)N[C@@H](C)C(=O)N[C@@H](CCCNC(=N)N)C(=O)N[C@H](C(N)=O)C(C)C)[C@@H](C)CC)[C@@H](C)O)[C@@H](C)O)[C@@H](C)CC)[C@@H](C)CC)C(C)C)C(C)C [compound 141] (H-IVLSLDVPIGLLQILLEQARAAAREQATTNARILARV-NH2)			< 7.00	< 7.00
CC[C@H](C)[C@H](N)C(=O)N[C@H](C(=O)N[C@@H](CC(C)C)C(=O)N[C@@H](CO)C(=O)N[C@@H](CC(C)C)C(=O)N[C@@H](CC(=O)O)C(=O)N[C@H](C(=O)N1CCC[C@H]1C(=O)N[C@H](C(=O)NCC(=O)N[C@@H](CC(C)C)C(=O)N[C@@H](CC(C)C)C(=O)N[C@@H](CCC(N)=O)C(=O)N[C@H](C(=O)N[C@@H](CC(C)C)C(=O)N[C@@H](CC(C)C)C(=O)N[C@@H](CCC(=O)O)C(=O)N[C@H](C(=O)N[C@@H](CCC(=O)O)C(=O)N[C@@H](CCCCN)C(=O)N[C@@H](CCC(N)=O)C(=O)N[C@@H](CCC(=O)O)C(=O)N[C@@H](CCCCN)C(=O)N[C@@H](CCC(=O)O)C(=O)N[C@@H](CCCCN)C(=O)N[C@@H](CCC(N)=O)C(=O)N[C@@H](CCC(N)=O)C(=O)N[C@@H](C)C(=O)N[C@@H](C)C(=O)N[C@@H](CC(N)=O)C(=O)N[C@@H](CC(N)=O)C(=O)N[C@@H](CCCNC(=N)N)C(=O)N[C@@H](CC(C)C)C(=O)N[C@@H](CC(C)C)C(=O)N[C@@H](CC(C)C)C(=O)N[C@@H](CC(=O)O)C(=O)N[C@H](C(=O)N[C@H](C(N)=O)[C@@H](C)CC)[C@@H](C)O)[C@@H](C)CC)[C@@H](C)CC)[C@@H](C)CC)C(C)C)C(C)C [compound 158] (H-IVLSLDVPIGLLQILLEIEKQEKEKQQAANNRLLLDTI-NH2)	> 100	6.37		
CC[C@H](C)[C@H](N)C(=O)N[C@H](C(=O)N[C@@H](CC(C)C)C(=O)N[C@@H](CO)C(=O)N[C@@H](CC(C)C)C(=O)N[C@@H](CC(=O)O)C(=O)N[C@H](C(=O)N1CCC[C@H]1C(=O)N[C@H](C(=O)NCC(=O)N[C@@H](CC(C)C)C(=O)N[C@@H](CC(C)C)C(=O)N[C@@H](CCC(N)=O)C(=O)N[C@@H](CCC(=O)O)C(=O)N[C@H](C(=O)N[C@@H](CC(C)C)C(=O)N[C@@H](CCC(=O)O)C(=O)N[C@@H](CCSC)C(=O)N[C@@H](C)C(=O)N[C@@H](CCCNC(=N)N)C(=O)N[C@@H](C)C(=O)N[C@@H](CCC(=O)O)C(=O)N[C@@H](CCC(N)=O)C(=O)N[C@@H](CC(C)C)C(=O)N[C@@H](C)C(=O)N[C@@H](CCC(N)=O)C(=O)N[C@@H](CCC(N)=O)C(=O)N[C@@H](C)C(=O)N[C@@H](Cc1c[nH]cn1)C(=O)N[C@@H](CO)C(=O)N[C@@H](CC(N)=O)C(=O)N[C@@H](CCCNC(=N)N)C(=O)N[C@@H](CCCCN)C(=O)N[C@@H](CC(C)C)C(=O)N[C@@H](CCSC)C(=O)N[C@@H](CCC(=O)O)C(=O)N[C@H](C(=O)N[C@H](C(N)=O)[C@@H](C)CC)[C@@H](C)CC)C(C)C)[C@@H](C)CC)C(C)C)C(C)C [compound 165] (H-IVLSLDVPIGLLQEVLEMARAEQLAQQAHSNRKLMEII-NH2)			< 7.00	< 7.00
